# Measured values: ChEMBL document CHEMBL3045346, “In vivo evaluation of substituted 2,3-diaryl acrylophenone amide derivatives as anti-implantation agents” (2009)
# Activity calls are given as the source filed them. No cut-off for these calls is given here.
# System: Rattus norvegicus
# Assay: Anti-implanatation activity in female Rattus norvegicus Sprague-Dawley (rat) assessed as implantation in uterine horns at 10 mg/kg, po administered on day 1 to 5 post-coitum measured on day 10 of pregnancy by laparotomy
# Type: functional
row,Structure (SMILES),Activity
1,CCCCN(C)C(=O)COc1ccc(/C=C(/C(=O)c2ccc(OC)cc2)c2ccc(OC)cc2)cc1,inactive
2,CCCCCCCCCCCCNC(=O)COc1ccc(/C=C(/C(=O)c2ccc(OC)cc2)c2ccccc2)cc1,67%
3,CCCCN(C)C(=O)COc1ccc(/C=C(/C(=O)c2ccc(OC)cc2)c2ccccc2)cc1,67%
4,CCCCCCCCCCCCNC(=O)COc1ccc(/C=C(/C(=O)c2ccc(OC)cc2)c2ccc(OC)cc2)cc1,inactive
5,CCCCCCCCCNC(=O)COc1ccc(/C=C(/C(=O)c2ccc(OC)cc2)c2ccccc2)cc1,inactive
6,CCCCCCCCNC(=O)COc1ccc(/C=C(/C(=O)c2ccc(OC)cc2)c2ccccc2)cc1,33%
7,CCCCCCCCNC(=O)COc1ccc(/C=C(/C(=O)c2ccc(OC)cc2)c2ccc(OC)cc2)cc1,100%
8,CCCCNC(=O)COc1ccc(/C=C(/C(=O)c2ccc(OC)cc2)c2ccccc2)cc1,inactive
9,CCCNC(=O)COc1ccc(/C=C(/C(=O)c2ccc(OC)cc2)c2ccccc2)cc1,inactive
10,COc1ccc2c(c1)OC(C)(C)[C@H](c1ccccc1)[C@H]2c1ccc(OCCN2CCCC2)cc1 (relative stereo) [REL-ORMELOXIFENE],100%
11,CCCCNC(=O)COc1ccc(/C=C(/C(=O)c2ccc(OC)cc2)c2ccc(OC)cc2)cc1,67%
12,CCCCCCN(CC)C(=O)COc1ccc(/C=C(/C(=O)c2ccc(OC)cc2)c2ccccc2)cc1,33%
